Among the data in patent US11639353B2, “Cyclobutanes- and azetidine-containing mono and spirocyclic compounds as αV integrin inhibitors” (BRISTOL-MYERS SQUIBB COMPANY, priority 2016, dated 2023) are IC50 values, retold here.

Each structure is given as a SMILES string.

T1 sequence (P06756 31-992 limits assumed): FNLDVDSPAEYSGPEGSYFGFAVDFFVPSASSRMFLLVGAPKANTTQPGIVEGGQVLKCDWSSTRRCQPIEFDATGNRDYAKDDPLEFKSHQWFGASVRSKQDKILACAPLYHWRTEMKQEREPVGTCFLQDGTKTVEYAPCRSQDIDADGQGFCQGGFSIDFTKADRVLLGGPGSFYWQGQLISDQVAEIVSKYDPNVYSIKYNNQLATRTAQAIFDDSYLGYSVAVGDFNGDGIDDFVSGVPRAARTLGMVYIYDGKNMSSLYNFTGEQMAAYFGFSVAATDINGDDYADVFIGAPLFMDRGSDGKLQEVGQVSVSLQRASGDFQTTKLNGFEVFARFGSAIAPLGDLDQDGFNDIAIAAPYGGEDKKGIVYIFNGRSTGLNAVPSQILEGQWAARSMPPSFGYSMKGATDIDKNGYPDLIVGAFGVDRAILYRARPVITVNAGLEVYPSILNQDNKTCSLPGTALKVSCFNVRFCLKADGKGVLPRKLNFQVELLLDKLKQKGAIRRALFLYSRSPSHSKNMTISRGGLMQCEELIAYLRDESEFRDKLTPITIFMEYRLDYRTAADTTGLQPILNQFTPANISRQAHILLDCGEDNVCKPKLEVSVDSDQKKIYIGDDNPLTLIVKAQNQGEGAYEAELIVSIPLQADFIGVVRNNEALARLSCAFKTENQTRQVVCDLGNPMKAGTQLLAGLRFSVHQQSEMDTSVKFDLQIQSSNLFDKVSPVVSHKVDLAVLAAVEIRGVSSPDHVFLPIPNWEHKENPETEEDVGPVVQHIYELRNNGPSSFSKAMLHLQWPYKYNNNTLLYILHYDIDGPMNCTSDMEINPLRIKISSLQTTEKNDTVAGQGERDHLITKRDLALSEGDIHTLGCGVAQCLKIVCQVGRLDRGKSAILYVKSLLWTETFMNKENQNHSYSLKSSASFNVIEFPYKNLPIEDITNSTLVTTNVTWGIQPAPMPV
T1 sequence (P18564 22-707 limits assumed): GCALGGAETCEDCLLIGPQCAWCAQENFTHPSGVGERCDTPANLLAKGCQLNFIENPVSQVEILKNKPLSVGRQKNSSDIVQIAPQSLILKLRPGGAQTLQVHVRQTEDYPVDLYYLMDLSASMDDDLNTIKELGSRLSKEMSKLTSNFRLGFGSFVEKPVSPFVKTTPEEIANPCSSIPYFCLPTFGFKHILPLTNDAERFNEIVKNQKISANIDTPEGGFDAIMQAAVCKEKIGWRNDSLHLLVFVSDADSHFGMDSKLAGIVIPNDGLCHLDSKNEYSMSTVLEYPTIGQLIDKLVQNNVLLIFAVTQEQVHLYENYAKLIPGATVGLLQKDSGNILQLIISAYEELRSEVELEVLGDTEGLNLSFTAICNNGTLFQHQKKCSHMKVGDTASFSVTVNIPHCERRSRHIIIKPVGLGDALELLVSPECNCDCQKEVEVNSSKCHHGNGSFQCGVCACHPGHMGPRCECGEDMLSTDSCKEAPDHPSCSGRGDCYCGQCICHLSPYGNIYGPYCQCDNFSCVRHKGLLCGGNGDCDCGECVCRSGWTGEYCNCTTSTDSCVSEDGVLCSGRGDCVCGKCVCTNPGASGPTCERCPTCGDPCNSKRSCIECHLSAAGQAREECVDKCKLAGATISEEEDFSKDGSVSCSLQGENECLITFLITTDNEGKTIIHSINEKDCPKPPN

This assay has as its target T1, human αVβ6 (Homo sapiens, UniProt P06756+P18564).
T1 construct: purchased R & D systems 3817-AV
Briefly: human αVβ6 HTRF binding assay. To be noted: alternatively SPA-based assay. The protocol: All binding assays used the HTRF (homogeneous time resolved fluorescence) technology from Cisbio International, therefore all assays are described as HTRF binding assays. The assay results for the Examples are listed above together with the characterization data. The HTRF binding assays are established for the following integrins: human αVβ6, human αVβ1, human αVβ3, human αVβ5, and human αVβ8. All assays used the following assay buffer: 20 mM Tris, pH 7.4, 1 mM MgCl2, 1 mM MnCl2, 0.01% Tween 20, and 0.01% BSA. Alternatively, a SPA-based assay was used for evaluation of receptor binding.
The following describes the components and a representative procedure for the human αVβ6 HTRF binding assay: Recombinant human αVβ6 Integrin (R & D systems, 3817-AV) was biotinylated. Biotinylated human αVβ6 Integrin was added to assay vessel at a final concentration of 1.25 nM. FITC-conjugated fibronectin (Cytoskeleton, FNR02) was then added at the final concentration of 5 nM. The mixture was centrifuged at 600 rpm for three minutes using Thermo Fisher Heraeus Multifuge X3 centrifuge and then incubated at RT for an hour. Streptavidin Terbium (Cisbio international 610STLB) was then added at the final concentration of 0.625 nM. The resulting mixture was centrifuged at 600 rpm for three minutes using Thermo Fisher Heraeus Multifuge X3 centrifuge and then incubated at room temperature overnight in dark before reading HTRF signals.
The SPA-based assay was carried out according to the protocol and procedures similar to the ones described in the following reference with appropriate modifications to agents and ligands which are readily understood by one skilled in the art: Pachter J A, Zhang R, Mayer-Ezell R., “Scintillation proximity assay to measure binding of soluble fibronectin to antibody-captured αVβ1 integrin” Anal Biochem. 1995 Sep. 1; 230(1):101-7.
For orientation: Time-resolved FRET reads energy transfer from a long-lived donor to a nearby acceptor.
Broadly, the IC50 is the concentration needed to halve the response being measured. The low end stands for greater potency in that assay, the high end for weaker potency in that assay. Molecule `Cc1cc(C)c(S(=O)(=O)N[C@@H](CNC(=O)C2CC3(C2)CN(CCc2ccc4c(n2)NCCC4)C3)C(=O)O)c(C)c1` [Example 35] gave an IC50 of 2.7 nM.

`COc1ccc([C@H](CC(=O)O)NC(=O)C2CN(CCc3ccc4c(n3)NCCC4)C2)cn1` [Example 37]: the IC50 amounted to 1 nM.

As to `O=C(O)C[C@H](NC(=O)C1CN(CCc2ccc3c(n2)NCCC3)C1)c1cc(Cl)cc(Cl)c1` [Example 38], the IC50 came to 0.8 nM.

`COc1ccc([C@H](CC(=O)O)NC(=O)C2CC3(C2)CN(CCc2ccc4c(n2)NCCC4)C3)cc1F` [Example 39]: the IC50 turned out to be 8.4 nM.

Molecule `COc1ccc([C@H](CC(=O)O)NC(=O)C2CN(CCCc3ccc4c(n3)NCCC4)C2)cn1` [Example 40] gave an IC50 of 1.6 nM.

Regarding `O=C(N[C@@H](CNC(=O)C1CC2(C1)CN(CCc1ccc3c(n1)NCCC3)C2)C(=O)O)OCc1ccccc1` [Example 41], the IC50 turned out to be 9.3 nM.

The molecule `COc1ccc([C@H](CC(=O)O)NC(=O)C2CN(CCc3ccc4c(n3)NCCC4)C2)cc1F` [Example 42] showed an IC50 of 0.4 nM.

Molecule `O=C(N[C@@H](CNC(=O)C1CN(CCc2ccc3c(n2)NCCC3)C1)C(=O)O)OCc1ccccc1` [Example 43] gave an IC50 of 0.4 nM.

Molecule `COc1ccc([C@H](CC(=O)O)NC(=O)C2(F)CN(CCc3ccc4c(n3)NCCC4)C2)cc1F` [Example 44] yielded an IC50 of 0.6 nM. This IC50 and that of the molecule before are within 1.5-fold of each other.

For the molecule `COc1ccc([C@H](CC(=O)O)NC(=O)C2(F)CN(CCc3ccc4c(n3)NCCC4)C2)cn1` [Example 46], the IC50 was found to be 0.6 nM.

`CCOC(=O)[C@H](CNC(=O)C1CC2(C1)CN(CCc1ccc3c(n1)NCCC3)C2)NS(=O)(=O)c1c(C)cc(C)cc1C` [Example 47] yielded an IC50 of 160 nM. Compared with the last molecule, the IC50 is about 270-fold higher.

Take `CCOC(=O)C[C@H](NC(=O)C1CN(CCc2ccc3c(n2)NCCC3)C1)c1ccc(OC)nc1` [Example 48]: the IC50 was determined as 400 nM.

Consider `CCOC(=O)C[C@H](NC(=O)C1CC2(C1)CN(CCc1ccc3c(n1)NCCC3)C2)c1cc(Cl)cc(Cl)c1` [Example 49], for which the IC50 was 480 nM.

`COc1ccc([C@H](CC(=O)O)NC(=O)[C@H]2C[C@@H](CCc3ccc4c(n3)NCCC4)C2)cc1F` [Example 54]: the IC50 was found to be 0.5 nM.

The molecule `N[C@@H](CNC(=O)C1CN(CCc2ccc3c(n2)NCCC3)C1)C(=O)O` [Example 55] returned an IC50 of 20 nM.

In turn, `COc1ccc([C@H](CC(=O)O)NC(=O)C2CC(CCC3CCc4cccnc4N3)C2)cn1` (stereo partly shown) [Example 57] registered an IC50 of 0.94 nM. This IC50 is about 21-fold lower than that of the molecule before.

With `COc1ccc([C@H](CC(=O)O)NC(=O)[C@H]2C[C@@H](CCc3ccc4c(n3)NCCC4)C2)cn1` [Example 60], the IC50 came out at 1 nM.

`O=C(N[C@@H](CC(=O)N1CC2(CC(CCc3ccc4c(n3)NCCC4)C2)C1)C(=O)O)OCc1ccccc1` [Example 61]: the IC50 was found to be 20 nM.

Consider `O=C(C[C@H](NC(=O)OCc1ccccc1)C(=O)O)NC1CC(CCc2ccc3c(n2)NCCC3)C1` (stereo partly shown) [Example 64], for which the IC50 came to 4 nM. This IC50 is about 5-fold lower than that of the molecule before.

In the case of `COc1ccc(C(CC(=O)O)CC(=O)N2CC(CCc3ccc4c(n3)NCCC4)C2)cc1F` (stereo not shown) [Example 67], the IC50 was 7.1 nM.

`COc1ccc([C@H](CC(=O)O)N2CC(CCCCc3ccc4c(n3)NCCC4)C2=O)cn1` (stereo partly shown) [Example 68] showed an IC50 of 2.4 nM.

Molecule `COc1ncc([C@H](CC(=O)O)N2CC(CCCCc3ccc4c(n3)NCCC4)C2=O)cn1` (stereo partly shown) [Example 70] gave an IC50 of 5.8 nM.

The molecule `O=C(O)C[C@@H](c1cc(F)cc(F)c1)N1CC(CCCCc2ccc3c(n2)NCCC3)C1=O` (stereo partly shown) [Example 71] registered an IC50 of 1.5 nM. Against the preceding molecule, the IC50 is about 3.9-fold lower.

`COc1ccc([C@H](CC(=O)O)NC2CN(CCCc3ccc4c(n3)NCCC4)C2)cc1F` [Example 72]: the IC50 was 1.1 nM.

Regarding `Cc1cc(C)c(S(=O)(=O)N[C@@H](CNC2CN(CCCc3ccc4c(n3)NCCC4)C2)C(=O)O)c(C)c1` [Example 73], the IC50 came out at 6.5 nM.

Consider `O=C(O)C[C@H](NC1CN(CCCc2ccc3c(n2)NCCC3)C1)c1cc(Cl)cc(Cl)c1` [Example 74], for which the IC50 is 0.5 nM.

In the case of `COc1ccc([C@H](CC(=O)O)NC2CC3(C2)CN(CCc2ccc4c(n2)NCCC4)C3)cn1` [Example 75], the IC50 came to 17 nM.

Regarding `COc1ccc([C@H](CC(=O)O)NC(=O)N2CC(F)(CCc3ccc4c(n3)NCCC4)C2)cc1F` [Example 76], the IC50 stood at 0.96 nM.

For the molecule `O=C(O)C[C@H](NC1CC2(C1)CN(CCCc1ccc3c(n1)NCCC3)C2)c1cc(Cl)cc(Cl)c1` [Example 79], the IC50 was found to be 3.2 nM.

On to `O=C(O)C[C@H](NC(=O)C1(F)CN(CCc2ccc3c(n2)NCCC3)C1)c1ccc2c(c1)OCC2` [Example 81], for which the IC50 was determined as 0.93 nM.

Consider `O=C(O)C[C@H](NC(=O)[C@H]1C[C@@H](CCc2ccc3c(n2)NCCC3)C1)c1cncnc1` [Example 91], for which the IC50 came to 2.9 nM. Against the preceding molecule, the IC50 is about 3.1-fold higher.

`O=C(O)C[C@H](NC(=O)[C@H]1C[C@H](CCc2ccc3c(n2)NCCC3)C1)c1cc(Cl)cc(Cl)c1` [Example 92]: the IC50 is 1.2 nM.

With `COc1ccc([C@H](CC(=O)O)C2(F)CN(C(=O)CCCc3ccc4c(n3)NCCC4)C2)cc1F` [Example 94], the IC50 is 10 nM.

Turning to `COc1ccc([C@@H](CC(=O)O)C2(F)CN(C(=O)CCCc3ccc4c(n3)NCCC4)C2)cc1F` [Example 95], the IC50 is 230 nM.

The molecule `CN(C1CN(CCCc2ccc3c(n2)NCCC3)C1)[C@@H](CC(=O)O)c1cc(Cl)cc(Cl)c1` [Example 98] displayed an IC50 of 0.53 nM.

For the molecule `COc1ccc(C(CC(=O)O)C2CC3(C2)CN(CCCc2ccc4c(n2)NCCC4)C3)cn1` (stereo not shown) [Example 99], the IC50 is 5.9 nM.

Take `COc1ccc(C(CC(=O)O)C2CC3(C2)CN(CCc2ccc4c(n2)NCCC4)C3)cn1` (stereo not shown) [Example 100]: the IC50 was determined as 2.4 nM.

As to `O=C(O)CC(c1cnc2ccccc2c1)C1CC2(C1)CN(CCc1ccc3c(n1)NCCC3)C2` (stereo not shown) [Example 101], the IC50 worked out at 4.7 nM.

`O=C(O)C[C@@H](c1ccc2c(c1)OCC2)N1CC(CCCCc2ccc3c(n2)NCCC3)C1=O` (stereo partly shown) [Example 105] yielded an IC50 of 3.9 nM. This IC50 and that of the molecule before are within 1.5-fold of each other.

For the molecule `O=C(O)C[C@@H](c1cnc2ccccc2c1)N1CC(CCCCc2ccc3c(n2)NCCC3)C1=O` (stereo partly shown) [Example 107], the IC50 amounted to 2.7 nM.

For the molecule `O=C(O)C[C@@H](c1cc(Cl)cc(Cl)c1)N1CC(CCCCc2ccc3c(n2)NCCC3)C1=O` (stereo partly shown) [Example 108], the IC50 was 0.72 nM.

With `O=C(O)C[C@@H](c1cc(Cl)cc(Cl)c1)N1CC(CCCCc2ccc3c(n2)NCCC3)C1=O` (stereo partly shown) [Example 109], the IC50 is 0.89 nM.

`O=C(O)C[C@@H](c1ccc2c(c1)CCO2)N1CC(CCCCc2ccc3c(n2)NCCC3)C1=O` (stereo partly shown) [Example 111] came in with an IC50 of 6 nM.

`O=C(O)C[C@@H](c1ccc(F)c(F)c1)N1CC(CCCCc2ccc3c(n2)NCCC3)C1=O` (stereo partly shown) [Example 112] had an IC50 of 3.9 nM.

The molecule `O=C(O)C[C@@H](c1ccc(F)c(F)c1)N1CC(CCCCc2ccc3c(n2)NCCC3)C1=O` (stereo partly shown) [Example 113] returned an IC50 of 12 nM.

With `COc1ccc(C(CC(=O)O)C2CC3(C2)CN(CCc2ccc4c(n2)NCCC4)C3)cc1F` (stereo not shown) [Example 116], the IC50 was 2.4 nM. This IC50 is about 5-fold lower than that of the molecule before.

Molecule `O=C(O)CC(c1cnc2ccccc2c1)C1CC2(C1)CN(CCCc1ccc3c(n1)NCCC3)C2` (stereo not shown) [Example 117] came in with an IC50 of 2.7 nM.

`O=C(O)CC(c1cnc2ccccc2c1)C1(F)CN(CCCCc2ccc3c(n2)NCCC3)C1` (stereo not shown) [Example 118]: the IC50 was found to be 5.9 nM.

In turn, `O=C(O)CCN(C(=O)OCc1ccccc1)C1CN(CCCc2ccc3c(n2)NCCC3)C1` [Example 119] displayed an IC50 of 7.4 nM.
